How the values were obtained:
[1] = tested on: Prunus dulcis; experiment: Inhibition of almond beta-glucosidase at 0.6 ug/mL by colorimetric assay
[2] = target: T1, Alpha-galactosidase (Aspergillus niger) (UniProt Q9Y865); experiment: Inhibition of Aspergillus niger alpha-galactosidase at 1.2 ug/mL by colorimetric assay
T1 sequence (whole entry): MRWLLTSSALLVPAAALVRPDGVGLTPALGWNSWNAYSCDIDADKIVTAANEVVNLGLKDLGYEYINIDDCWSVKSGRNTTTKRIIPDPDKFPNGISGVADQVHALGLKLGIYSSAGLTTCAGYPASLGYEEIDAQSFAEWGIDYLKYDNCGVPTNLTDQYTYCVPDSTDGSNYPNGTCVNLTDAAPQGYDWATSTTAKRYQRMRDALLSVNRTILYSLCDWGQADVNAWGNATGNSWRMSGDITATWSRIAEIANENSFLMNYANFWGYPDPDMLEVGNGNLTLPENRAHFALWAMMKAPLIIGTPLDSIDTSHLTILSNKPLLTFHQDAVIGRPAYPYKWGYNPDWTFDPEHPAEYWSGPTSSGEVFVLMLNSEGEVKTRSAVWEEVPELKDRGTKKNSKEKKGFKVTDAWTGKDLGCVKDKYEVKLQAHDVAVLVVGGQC

[3] = tested on: Canavalia ensiformis; experiment: Inhibition of jack bean alpha-mannosidase at 25 to 30 ng/mL by colorimetric assay

Structure (SMILES) | inhibition [1] | inhibition [2] | inhibition [3]
O[C@@H]1[C@@H](O)[C@H](O)[C@]2(O)CC[C@H]1N2 | 50% | 50% | –
O[C@H]1[C@H]2[C@H](O)CCCN2C[C@H]1O | – | – | 50%
